Assay results from patent publication US20240400604A1, “NUCLEOSIDE TRIPHOSPHATE PHOTOAFFINITY PROBE, METHOD FOR PREPARING SAME, AND APPLICATIONS THEREOF” (SHANDONG UNIVERSITY, priority 2023, published 2024).
Blank lines part the entries; values can stand above or below the molecule they belong to.

Columns and labels:
[1] = test system: GTP-binding proteins in HEK 293T cell lysates; assay: In-gel fluorescence imaging of HEK 293T cell lysate labeled with the GTP probes; conditions: competitor incubated on ice 10 minutes before probe; 50 μM GTP-O probe (FIG. 11)
Method: Appropriate amount cells were incubated on ice for 30 min in 1% lysis buffer (1% Triton X-100, 50 mM HEPES (pH 7.4), 150 mM NaCl, supplemented with phosphatase inhibitor A, phosphatase inhibitor B, and protease inhibitor right before use) at 5-10 times the cell volume. Vortexing for 5 seconds every 10 minutes. The cell lysates were centrifuged at 12,000 rpm at 4° C. for 30 min, and the supernatants were passed through an Amersham NAP-5 column to remove endogenous nucleosides. The proteins were quantified using a Bradford protein assay kit. Approximately 100 μg protein was diluted with 0.1% lysis buffer (0.1% Triton X-100, 50 mM HEPES, 150 mM sodium chloride). To the solution was added 1 mM magnesium chloride, the GTP probe and competitors to designated concentrations. The final volume for the reaction was 100 μL and the final protein concentration was […]. After incubated on ice, the solution was irradiated with 365-nm UV light for 30 min. To the solution were added freshly prepared tris-(2-carboxyethyl)phosphine (TCEP) until its concentration reached 1 mM, and a CuAAC reaction mixture to reach a final concentration of 1 mM CuSO4, 0.1 mM tris[(1-benzyl-1H-1,2,3-triazol-4-yl)methyl]amine (TBTA), and 0.1 mM rhodamine β-PEG3-azide. The mixture was incubated at room temperature for 2 hrs and then precipitated in a solution of chloroform: methanol: water (4:3:1, v/v). After washing with cold methanol and air dried, the protein pellet was dissolved in 30 μL 4% SDS buffer (4% SDS, 50 mM HEPES (pH 7.4), 150 mM NaCl, 50 mM Trolamine). The protein concentration was determined using a BCA protein assay kit. A solution of approximately 20 μg proteins was added 4×loading buffer (0.25M Trometamol, pH=6.8, 4% SDS, 40% Glycerol, 0.02% bromophenol blue, add 200 μL 2-Mercaptoethanol to 800 μL buffer right before use), boiled at 95° C. for 5 min and loaded onto an SDS-PAGE gel (4% stacking gel, 10% separating gel). Then perform SDS-PAGE separation at a constant voltage of 90 V for about 110 minutes. At the end of electrophoresis, cut the separation gel and imaged with an Amersham Imager 600 (GE Healthcare) at 520 nm. The gel was then stained with Coomassie Brilliant Blue staining solution (0.1% Coomassie brilliant blue, 10% acetic acid, 50% methanol) for 30 min and destained with destaining solution (10% acetic acid, 30% methanol) to remove background color.

[2] = test system: GTP-binding proteins in HEK 293T cell lysates; assay: Proteomic LC-MS/MS analysis of HEK 293T cell lysate labeled with GTP probes; parameters: species or system human
Method: Under optimized conditions, HEK 293T cell lysates were labeled using the GTP photoaffinity probes. Peptide samples were prepared via the On-Beads enzymatic digestion method for proteomic study. Approximately 1 mg of proteins was labeled with 0.1 mM GTP probe and irradiated with 365-nm UV light for 30 min. To the solution were added freshly prepared tris-(2-carboxyethyl)phosphine (TCEP) until its concentration reached 1 mM, and a CuAAC reaction mixture to reach a final concentration of 1 mM CuSO4, 0.1 mM tris[(1-benzyl-1H-1,2,3-triazol-4-yl)methyl]amine (TBTA), and 0.5 mM biotin-PEG3-azide (for GTP-O probe labeled samples), or 0.5 mM biotin-DADPS-azide (for GTP-N probe labeled samples). The mixture was vortexed at room temperature for 2 hours and then precipitated in ice-cold methanol overnight.
The precipitated proteins were dissolved in 100 μL 4% SDS buffer (4% SDS, 150 mM NaCl, 50 mM HEPES, pH=7.4), and diluted with 900 μL SDS-free HEPES buffer (150 mM NaCl, 50 mM HEPES, pH=7.4). High-capacity streptavidin beads (50 μL per sample) were washed three times with 20 times volume of wash buffer (150 mM sodium chloride, 50 mM HEPES, pH=7.4) before adding to the samples. After incubation on a rotary shaker at room temperature for 2 hours, non-specifically bound proteins were washed away in a centrifugal filtration column using 1× PBS containing 1% SDS, 10× PBS, 1× PBS, water, and 50 mM ammonium bicarbonate solution with 8 M urea, each wash using 1 mL of solution for five times. The beads were transferred to a centrifuge tube using 50 mM ammonium bicarbonate solution containing 8 M urea and resuspended with 500 μL of this solution. The disulfide bonds were reduced by adding 20 mM TCEP and incubating at 37° C. for 1 hour, and then alkylated with 50 mM iodacetamide at room temperature in the dark for 30 minutes. After centrifugation at 3000 rpm for 2 minutes, the supernatant was gently removed. The beads were washed with 25 mM ammonium bicarbonate three times, resuspended in 100 μL 25 mM ammonium bicarbonate, and incubated with 1 μg of MS-grade trypsin (1 μg/μL) at 37° C. for 18 hrs.
The beads were washed with 200 μL of 25 mM ammonium bicarbonate solution, then centrifuged at 12000 rpm for 2 minutes to collect the supernatant. The procedure was repeated 6 times, and the supernatants were combined to obtain sample 1 (peptides without probe modification). For GTP-O probe labeled samples, the beads were resuspended in 200 μL of 70% acetonitrile solution containing 1% trifluoroacetic acid, vortexed for 5 minutes, then centrifuged at 12000 rpm for 2 minutes to collect the supernatant. The procedure was repeated 5 times, and the supernatants were combined to obtain sample 2 (containing probe-modified peptides). For GTP-N probe labeled samples, the beads were resuspended in 100 μL of 10% formic acid, incubated on a rotary shaker at room temperature for 30 minutes, then centrifuged at 12000 rpm for 2 minutes to collect the supernatant. The procedure was repeated 3 times, and the supernatants were combined. Trifluoroacetic acid was added to a final concentration of 1%, and incubated at 37° C. for 30 minutes to obtain sample 2. The peptide solutions were dried with a centrifugal concentrator and desalted using C18 tips, then frozen at −80° C. until LC-MS/MS detection. Samples were dissolved in 20 μL of pure water, 4 μL of sample 1 and 8 μL of sample 2 were injected for analysis.
An EASY-nLC 1200 liquid chromatography coupled with a Q-Exactive Orbitrap mass spectrometer was employed for LC-MS/MS analysis. A homemade C18 capillary column (inner diameter 75 μm, column length 18 cm) packed with Reprosil-Pur120 C18-AQ (Dr. maisch, particle size […]) was utilized as the separation column. The precolumn (inner diameter 150 μm, column length 4 cm) was packed with Reprosil-Pur120 C18-AQ (Dr. maisch, particle size 5 μm,). The mobile phase A was 0.1% formic acid, while mobile phase B was 0.1% formic acid in 80% acetonitrile, and the flow rate was 300 nL/min. […]

[3] = test system: ATP-binding proteins in HEK 293T cell lysates; assay: In-gel fluorescence imaging of HEK 293T cell lysates labeled with the ATP-N probe; conditions: 10 μM ATP-N probe, FIG. 23c
[4] = target: T1, PLCG1 (Homo sapiens, UniProt P19174); assay: EHT 1864 competitive GTP-N probe labeling of HEK 293T cell lysates, LC-MS/MS; type: binding; conditions: GTP-N probe 20 μM; EHT 1864 20, 40, 100, 200 μM
T1 construct: the GTP-N probe was used for protein labeling of HEK 293T cell lysates; endogenous in cells; host or cells: HEK 293T cell lysate
T1 sequence (P19174 1-1290): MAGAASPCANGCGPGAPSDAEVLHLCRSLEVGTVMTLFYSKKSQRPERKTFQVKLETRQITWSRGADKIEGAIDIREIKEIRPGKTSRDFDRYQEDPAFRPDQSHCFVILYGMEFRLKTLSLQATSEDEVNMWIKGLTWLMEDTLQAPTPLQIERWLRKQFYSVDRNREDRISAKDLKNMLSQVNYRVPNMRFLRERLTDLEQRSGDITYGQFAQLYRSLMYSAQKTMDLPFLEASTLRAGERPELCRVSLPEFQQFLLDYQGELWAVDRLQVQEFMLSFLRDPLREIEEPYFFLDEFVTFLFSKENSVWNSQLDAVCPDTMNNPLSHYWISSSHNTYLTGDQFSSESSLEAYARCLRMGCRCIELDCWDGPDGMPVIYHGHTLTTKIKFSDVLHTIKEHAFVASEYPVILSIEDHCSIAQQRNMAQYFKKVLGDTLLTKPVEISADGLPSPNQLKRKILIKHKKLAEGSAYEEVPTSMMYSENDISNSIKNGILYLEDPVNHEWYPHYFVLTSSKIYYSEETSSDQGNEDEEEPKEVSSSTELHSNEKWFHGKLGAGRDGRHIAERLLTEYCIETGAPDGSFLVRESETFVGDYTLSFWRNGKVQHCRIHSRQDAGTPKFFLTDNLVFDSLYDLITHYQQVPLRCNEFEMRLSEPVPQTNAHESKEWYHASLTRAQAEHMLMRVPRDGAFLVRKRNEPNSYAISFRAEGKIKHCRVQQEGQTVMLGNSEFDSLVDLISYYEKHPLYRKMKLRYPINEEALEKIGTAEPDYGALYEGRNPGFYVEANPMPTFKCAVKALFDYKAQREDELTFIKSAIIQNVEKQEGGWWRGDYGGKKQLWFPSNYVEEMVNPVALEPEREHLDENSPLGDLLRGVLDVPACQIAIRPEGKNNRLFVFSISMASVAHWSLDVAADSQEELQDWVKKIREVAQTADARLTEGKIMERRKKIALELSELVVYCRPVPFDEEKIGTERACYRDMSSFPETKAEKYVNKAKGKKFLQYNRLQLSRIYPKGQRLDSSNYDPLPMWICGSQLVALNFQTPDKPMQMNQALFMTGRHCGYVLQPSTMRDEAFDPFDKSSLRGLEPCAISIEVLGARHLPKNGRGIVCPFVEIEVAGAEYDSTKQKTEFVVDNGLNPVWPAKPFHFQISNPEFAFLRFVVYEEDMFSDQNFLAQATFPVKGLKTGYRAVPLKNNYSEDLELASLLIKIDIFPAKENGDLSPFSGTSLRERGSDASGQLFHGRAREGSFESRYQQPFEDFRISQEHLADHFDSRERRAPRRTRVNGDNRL
Method: (§1) Using the On-Beads digestion method, the GTP-N probe was used for protein labeling of HEK 293T cell lysates. For the competition experiments, a GTP-competitive inhibitor EHT 1864 was added before probe labeling to inhibit probe binding with targeted GTP-binding proteins. The final concentration of the probe was 20 μM, and EHT 1864 was used at concentrations of 20 μM, 40 μM, 100 μM, and 200 μM, respectively. The inhibitor was pre-incubated with cell lysates on ice for 10 minutes, followed by the GTP-N probe labeling, sample preparation, and LC-MS/MS analysis, same as in Section 1.3 of Example 3.

[5] = target: T2, ACTR2 (Homo sapiens, UniProt P61160); assay: as above; type: binding; conditions: GTP-N probe 20 μM; EHT 1864 20, 40, 100, 200 μM
T2 construct: endogenous in cells; host or cells: HEK 293T cell lysate
Method: as §1

[6] = target: T3, ACTR3 (Homo sapiens, UniProt P61158); assay: as above; type: binding; conditions: GTP-N probe 20 μM; EHT 1864 20, 40, 100, 200 μM
T3 construct: the GTP-N probe was used for protein labeling of HEK 293T cell lysates; endogenous in cells; host or cells: HEK 293T cell lysate
Method: as §1

[7] = three biological replicates, 0.1 mM probe, control probe = GTP-ctrl probe

SMILES: Nc1nc2c(ncn2[C@@H]2O[C@H](COP(=O)(O)OP(=O)(O)OP(=O)(O)O)[C@@H](O)[C@H]2O)c(=O)[nH]1 [GTP, guanosine triphosphate]
competition effect on probe labeling (fluorescence of labeled bands) [1]: significantly decrease the fluorescence intensity of several labeled proteins bands

SMILES: C#CCCC1(CCOP(=O)(O)OP(=O)(O)OP(=O)(O)OC[C@H]2O[C@@H](n3cnc4c(=O)[nH]c(N)nc43)C(O)[C@H]2O)N=N1 (stereo partly shown) [GTP-O probe]
probe-modified sites on labeled proteins ([2]; LC-MS/MS of sample 2 (probe-modified peptides)): not detected
GTP-binding proteins identified [2, 7]: 95
total proteins identified [2, 7]: 1808

SMILES: Nc1ncnc2c1ncn2[C@@H]1O[C@H](COP(=O)(O)O)[C@@H](O)[C@H]1O [AMP, reference compound]
competition effect on ATP-N probe labeling [3]: not significant

SMILES: Nc1nc2c(ncn2[C@@H]2O[C@H](COP(=O)([O-])[O-])[C@@H](O)[C@H]2O)c(=O)[nH]1.[Na+].[Na+] [GMP, guanosine 5′-monophosphate disodium salt]
competition effect on probe labeling (fluorescence of labeled bands) [1]: non-specific competition

protein intensity of PLCG1 in competition groups [4]: overall decreased protein intensities
protein intensity of ACTR2 in competition groups [5]: overall decreased protein intensities
protein intensity of ACTR3 in competition groups [6]: overall decreased protein intensities
SMILES: O=c1cc(CN2CCOCC2)occ1OCCCCCSc1ccnc2cc(C(F)(F)F)ccc12 [EHT 1864]

SMILES: Nc1ncnc2c1ncn2[C@@H]1O[C@H](COP(=O)(O)OP(=O)(O)OP(=O)(O)O)[C@@H](O)[C@H]1O [ATP, adenosine triphosphate]
competition effect on probe labeling (fluorescence of labeled bands) [1]: non-specific competition
